In patent US8975400B2, “2,3-dihydroimidazo[1, 2-c] pyrimidin-5(1 H)-one compounds use as LP-PLA2 inhibitors” (Glaxo Group Limited, priority 2011, dated 2015):
Structures can show the parent of a compound that is named as a salt.

How the values were obtained:
[1] = molecular target: T1, Lp-PLA2 in human plasma (Homo sapiens, UniProt Q13093); test: Lp-PLA2 human plasma assay (Thio-PAF assay); type: biochemical; settings: pooled human plasma, 2-thio-PAF substrate; read-out: pIC50 in the thio-PAF assay (converted)
T1 construct: This assay may detect the activity of Lp-PLA2 in human plasma; from tissue; host or cells: pooled human plasma
T1 sequence (Q13093 22-441): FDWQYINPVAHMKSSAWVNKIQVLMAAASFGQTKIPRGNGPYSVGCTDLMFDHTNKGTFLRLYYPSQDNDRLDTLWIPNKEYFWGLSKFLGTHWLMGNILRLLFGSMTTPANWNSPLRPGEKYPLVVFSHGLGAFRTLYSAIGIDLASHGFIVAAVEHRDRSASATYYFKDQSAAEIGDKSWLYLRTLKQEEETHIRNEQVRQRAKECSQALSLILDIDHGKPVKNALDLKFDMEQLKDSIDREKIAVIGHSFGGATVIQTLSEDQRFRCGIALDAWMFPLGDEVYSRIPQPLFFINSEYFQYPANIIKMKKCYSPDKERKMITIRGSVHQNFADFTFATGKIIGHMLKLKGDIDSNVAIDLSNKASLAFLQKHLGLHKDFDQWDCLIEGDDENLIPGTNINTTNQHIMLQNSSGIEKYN
Outline: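 Pooled human plasma preincubated 30 min with serially diluted compounds, then 2-thio-PAF substrate with CPM and NEM added in 50 mM HEPES pH 7.4, 150 mM NaCl, 1 mM CHAPS. TFA-quenched after 2 min, 40 min at RT, fluorescence ex 380/em 485; pIC50 from curve fit.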

[2] = molecular target: T2, recombinant human Lp-PLA2 (Homo sapiens, UniProt Q13093); test: Recombinant human Lp-PLA2 assay (rhLp-PLA2, PED6 assay); type: biochemical; settings: recombinant human Lp-PLA2, PED6 substrate; upper limit for pIC50 in this assay is 9.3
T2 sequence (Q13093 22-441): T1 sequence (Q13093 22-441)
Outline: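 Compound preincubated 30 min with rhLp-PLA2 (4 nM or 110 pM) in 50 mM HEPES pH 7.4, 150 mM NaCl, 1 mM CHAPS, then PED6 substrate (4 μM or 5 μM) added. After 20 min at room temperature protected from light, fluorescence read at ex 480/em 540. pIC50 derived from serial-dilution curves.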

SMILES	IC50 [1] [nM]	IC50 [2] [nM]
CN1CCn2c1cc(OCc1ccc(Oc3ccc(Cl)nc3)c(C#N)c1)nc2=O [Example 100, 2-((6-chloropyridin-3-yl)oxy)-5-(((1-methyl-5-oxo-1,2,3,5-tetrahydroimidazo[1,2-c]pyrimidin-7-yl)oxy)methyl)benzonitrile]	≤ 1000	≤ 10
O=c1nc(OCc2ccc(Oc3ccnc(C(F)(F)F)c3)c(F)c2)cc2n1CCN2 [Example 119, 7-((3-fluoro-4-((2-(trifluoromethyl)pyridin-4-yl)oxy)benzyl)oxy)-2,3-dihydroimidazo[1,2-c]pyrimidin-5(1H)-one]	≤ 100	2.51
CN1CCn2c1cc(OCc1cc(F)c(Oc3cc(F)cc(F)c3)c(F)c1)nc2=O [Example 99, 7-((4-(3,5-difluorophenoxy)-3,5-difluorobenzyl)oxy)-1-methyl-2,3-dihydroimida-zo[1,2-c]pyrimidin-5(1H)-one]	≤ 1000	≤ 10
CN1CCn2c1cc(OCc1ccc(Oc3ccc(F)c(C#N)c3)c(F)c1)nc2=O [Example 139, 2-fluoro-5-(2-fluoro-4-(((1-methyl-5-oxo-1,2,3,5-tetrahydroimidazo[1,2-c]pyrimidin-7-yl)oxy)methyl)phenoxy)benzonitrile]	≤ 1000	≤ 10
N#Cc1ccc(Oc2ccc(COc3cc4n(c(=O)n3)CCN4)cc2F)cc1C(F)(F)F [Example 118, 4-(2-fluoro-4-(((5-oxo-1,2,3,5-tetrahydroimidazo[1,2-c]pyrimidin-7-yl)oxy)methyl)p-hen-oxy)-2-(trifluoromethyl)benzonitrile]	≤ 100	0.794
N#Cc1cc(COc2cc3n(c(=O)n2)CCN3)ccc1Oc1ccc(C#N)c(C(F)(F)F)c1 [Example 88, 4-(2-cyano-4-(((5-oxo-1,2,3,5-tetrahydroimidazo[1,2-c]pyrimidin-7-yl)oxy)methyl)p-henolxy)-2-(trifluoromethyl)benzonitrile]	≤ 100	2
CN1CCn2c1cc(OCc1ccc(Oc3ccc(Cl)nc3)c(F)c1)nc2=O [Example 103, 7-((4-((6-chloropyridin-3-yl)oxy)-3-fluorobenzyl)oxy)-1-methyl-2,3-dihydroimid-azo[1,2-c]pyrimidin-5(1H)-one, trifluoroacetic acid salt]	≤ 100	≤ 10
CN1CCn2c1cc(OCc1ccc(Oc3ccc(C#N)c(F)c3)c(C#N)c1)nc2=O [Example 95, 4-(2-cyano-4-(((1-methyl-5-oxo-1,2,3,5-tetrahydroimidazo[1,2-c]pyrimidin-7-yl)oxy)methyl)phenoxy)-2-fluorobenzonitrile]	≤ 100	1.26
O=c1nc(OCc2ccc(Oc3ccc(Cl)c(C(F)(F)F)c3)cc2)cc2n1CCN2 [Example 89, 7-((4-(4-chloro-3-(trifluoromethyl)phenoxy)benzyl)oxy)-2,3-dihydroimidazo[1,2-c]pyrimidin-5(1H)-one]	≤ 1000	≤ 10

More lines, now with the values ahead:

IC50 [1] [nM]	IC50 [2] [nM]	SMILES
≤ 1000	≤ 10	CN1CCn2c1cc(OCc1ccc(Oc3cc(F)c(F)c(F)c3)c(C#N)c1)nc2=O [Example E38, 5-(((1-methyl-5-oxo-1,2,3,5-tetrahydroimidazo[1,2-c]pyrimidin-7-yl)oxy)methyl)-2-(3,4,5-trifluorophenoxy)benzonitrile, trifluoroacetic acid salt]
≤ 100	≤ 1	CC(C)N1CCn2c1cc(OCc1ccc(Oc3cccc(C(F)(F)F)c3)c(C#N)c1)nc2=O [Example E51, 5-(((1-isopropyl-5-oxo-1,2,3,5-tetrahydroimidazo[1,2-c]pyrimidin-7-yl)oxy)methy)-2-(3-(trifluoromethyl)phenoxy)benzonitrile, trifluoroacetic acid salt]
≤ 100	≤ 1	CN1CCn2c1cc(OCc1cc(F)c(Oc3ccc(F)c(Cl)c3)c(F)c1)nc2=O [Example E87, 7-((4-(3-chloro-4-fluorophenoxy)-3,5-difluorobenzyl)oxy)-1-methyl-2,3-dihydroimidazo[1,2-c]pyrimidin-5(1H)-one]
≤ 100	≤ 10	N#Cc1ccc(Oc2ccc(COc3cc4n(c(=O)n3)CCN4)cc2C#N)cc1F [Example E64, 4-(2-cyano-4-(((5-oxo-1,2,3,5-tetrahydroimidazo[1,2-c]pyrimidin-7-yl)oxy)methyl)p-henoxy)-2-fluorobenzonitrile]
≤ 1000	≤ 10	CN1CCn2c1cc(OCc1ccc(Oc3ccc(C(F)(F)F)cc3)c(C#N)c1)nc2=O [Example E24, 5-(((1-methyl-5-oxo-1,2,3,5-tetrahydroimidazo[1,2-c]pyrimidin-7-yl)oxy)methyl)-2-(4-(trifluoromethyl)phenoxy)benzonitrile, trifluoroacetic acid salt]
≤ 100	1.26	CN1CCn2c1cc(OCc1ccc(Oc3ccnc(C(F)(F)F)c3)c(C#N)c1)nc2=O [Example E80, 5-(((1-methyl-5-oxo-1,2,3,5-tetrahydroimidazo[1,2-c]pyrimidin-7-yl)oxy)methyl)-2-((2-(trifluoromethyl)pyridin-4-yl)oxy)benzonitrile]
≤ 1000	≤ 1	CN1CCn2c1cc(OCc1ccc(Oc3ccc(Br)c(F)c3)c(C#N)c1)nc2=O [Example E70, 2-(4-bromo-3-fluorophenoxy)-5-(((I-methyl-5-oxo-1,2,3,5-tetrahydroimidazo[1,2-c]pyrimidin-7-yl)oxy)methyl)benzonitrile]
≤ 1000	≤ 10	CN1CCn2c1cc(OCc1ccc(Oc3cc(F)c(F)c(F)c3)c(F)c1)nc2=O [Example E42, 7-((3-fluoro-4-(3,4,5-trifluorophenoxy)benzyl)oxy)-1-methyl-2,3-dihydroimi-dazo[1,2-c]pyrimidin-5(1H)-one]
≤ 100	≤ 10	CC(C)N1CCn2c1cc(OCc1ccc(Oc3ccc(Cl)c(C(F)(F)F)c3)cc1)nc2=O [Example E59, 7-((4-(4-chloro-3-(trifluoromethyl)phenoxy)benzyl)oxy)-1-isopropyl-2,3-dihydroim-idazo[1,2-c]pyrimidin-5(1H)-one]
≤ 100	0.631	N#Cc1cc(COc2cc3n(c(=O)n2)CCN3)ccc1Oc1ccc(C(F)(F)F)c(F)c1 [Example E65, 2-(3-fluoro-4-(trifluoromethyl)phenoxy)-5-(((5-oxo-1,2,3,5-tetrahydroimidazo[1,2-c]pyrimidin-7-yl)oxy)methyl)benzonitrile]
≤ 1000	≤ 10	CN1CCn2c1cc(OCc1ccc(Oc3ccc(Cl)c(F)c3)c(C#N)c1)nc2=O [Example E37, 2-(4-chloro-3-fluorophenoxy)-5-(((1-methyl-5-oxo-1,2,3,5-tetrahydroimidazo[1,2-c]pyrimidin-7-yl)oxy)methyl)benzonitrile, trifluoroacetic acid salt]
≤ 1000	≤ 1	N#Cc1cc(COc2cc3n(c(=O)n2)CCN3)ccc1Oc1ccc(F)c(F)c1 [Example E72, 2-(3,4-difluorophenoxy)-5-(((5-oxo-1,2,3,5-tetrahydroimidazo[1,2-c]pyrimidin-7-yl)oxy)methyl)benzonitrile, trifluoroacetic acid salt]
≤ 100	≤ 1	CN1CCn2c1cc(OCc1cc(F)c(Oc3ccc(Cl)c(F)c3)c(F)c1)nc2=O [Example E86, 7-((4-(4-chloro-3-fluorophenoxy)-3,5-difluorobenzyl)oxy)-1-methyl-2,3-dihydroimi-dazo[1,2-c]pyrimidin-5(1H)-one]
≤ 100	≤ 10	CN1CCn2c1cc(OCc1ccc(Oc3ccc(Cl)c(C(F)(F)F)c3)cc1)nc2=O [Example E5, 7-((4-(4-chloro-3-(trifluoromethyl)phenoxy)benzyl)oxy)-1-methyl-2,3-dihydroimidazo[1,2-c]pyrimidin-5(1H)-one]
≤ 100	≤ 10	CN1CCn2c1cc(OCc1ccc(Oc3ccc(F)c(C#N)c3)c(C#N)c1)nc2=O [Example E52, 5-(2-cyano-4-(((1-methyl-5-oxo-1,2,3,5-tetrahydroimidazo[1,2-c]pyrimidin-7-yl)oxy)methyl)phenoxy)-2-fluorobenzonitrile]
≤ 100	≤ 10	CN1CCn2c1cc(OCc1ccc(Oc3ccc(C(F)(F)F)nc3)c(C#N)c1)nc2=O [Example E49, 5-(((1-methyl-5-oxo-1,2,3,5-tetrahydroimidazo[1,2-c]pyrimidin-7-yl)oxy)methyl)-2-((6-(trifluoromethyl)pyridin-3-yl)oxy)benzonitrile]
≤ 100	≤ 10	CN1CCn2c1cc(OCc1ccc(Oc3ccc(F)c(F)c3)c(C#N)c1)nc2=O [Example E34, 2-(3,4-difluorophenoxy)-5-(((1-methyl-5-oxo-1,2,3,5-tetrahydroimidazo[1,2-c]pyrimidin-7-yl)oxy)methyl)benzonitrile]
